# Tested on: Streptococcus pneumoniae
# Assay: Antibacterial activity against Streptococcus pneumoniae by NCCLS method
# Type: functional
row,MIC,SMILES
1,> 16 µg/mL,CC[C@H]1OC(=O)[C@H](C)[C@@H](OC(=O)Cc2ccccn2)[C@H](C)[C@@H](O[C@@H]2O[C@H](C)C[C@H](N(C)CC3CC3)[C@H]2O)[C@](C)(OC)C[C@@H](C)C(=O)[C@H](C)[C@@H](O)[C@]1(C)O
2,0.5 µg/mL,CC[C@H]1OC(=O)[C@H](C)[C@@H](OC(=O)Cc2ccc([N+](=O)[O-])cc2)[C@H](C)[C@@H](O[C@@H]2O[C@H](C)C[C@H](N(C)CC)[C@H]2O)[C@](C)(OC)C[C@@H](C)C(=O)[C@H](C)[C@@H](O)[C@]1(C)O
3,0.5 µg/mL,C=CCN(C)[C@H]1C[C@@H](C)O[C@@H](O[C@@H]2[C@@H](C)[C@H](OC(=O)Cc3ccc(F)cc3)[C@@H](C)C(=O)O[C@H](CC)[C@@](C)(O)[C@H](O)[C@@H](C)C(=O)[C@H](C)C[C@@]2(C)OC)[C@@H]1O
4,32 µg/mL,CC[C@H]1OC(=O)[C@H](C)[C@@H](OC(=O)Cc2ccncc2)[C@H](C)[C@@H](O[C@@H]2O[C@H](C)C[C@H](N(C)CC3CC3)[C@H]2O)[C@](C)(OC)C[C@@H](C)C(=O)[C@H](C)[C@@H](O)[C@]1(C)O
5,0.06 µg/mL,C=CCN(C)[C@H]1C[C@@H](C)O[C@@H](O[C@@H]2[C@@H](C)[C@H](OC(=O)Cc3cccc([N+](=O)[O-])c3)[C@@H](C)C(=O)O[C@H](CC)[C@@](C)(O)[C@H](O)[C@@H](C)C(=O)[C@H](C)C[C@@]2(C)OC)[C@@H]1O
6,> 32 µg/mL,CC[C@H]1OC(=O)[C@H](C)[C@@H](OC(=O)Cc2ccc([N+](=O)[O-])cc2)[C@H](C)[C@@H](O[C@@H]2O[C@H](C)C[C@H](N(C)C3CC3)[C@H]2O)[C@](C)(OC)C[C@@H](C)C(=O)[C@H](C)[C@@H](O)[C@]1(C)O
7,2 µg/mL,C#CCN(C)[C@H]1C[C@@H](C)O[C@@H](O[C@@H]2[C@@H](C)[C@H](OC(=O)Cc3cccnc3)[C@@H](C)C(=O)O[C@H](CC)[C@@](C)(O)[C@H](O)[C@@H](C)C(=O)[C@H](C)C[C@@]2(C)OC)[C@@H]1O
8,0.25 µg/mL,C=CCN(C)[C@H]1C[C@@H](C)O[C@@H](O[C@@H]2[C@@H](C)[C@H](OC(=O)Cc3ccccc3[N+](=O)[O-])[C@@H](C)C(=O)O[C@H](CC)[C@@](C)(O)[C@H](O)[C@@H](C)C(=O)[C@H](C)C[C@@]2(C)OC)[C@@H]1O
9,0.25 µg/mL,CC[C@H]1OC(=O)[C@H](C)[C@@H](OC(=O)Cc2cccnc2)[C@H](C)[C@@H](O[C@@H]2O[C@H](C)C[C@H](N(C)Cc3ccccc3)[C@H]2O)[C@](C)(OC)C[C@@H](C)C(=O)[C@H](C)[C@@H](O)[C@]1(C)O
10,1 µg/mL,CC[C@H]1OC(=O)[C@H](C)[C@@H](OC(=O)Cc2ccc(F)cc2)[C@H](C)[C@@H](O[C@@H]2O[C@H](C)C[C@H](N(C)Cc3ccccc3)[C@H]2O)[C@](C)(OC)C[C@@H](C)C(=O)[C@H](C)[C@@H](O)[C@]1(C)O
11,32 µg/mL,CC[C@H]1OC(=O)[C@H](C)[C@@H](OC(=O)Cc2ccc(F)cc2)[C@H](C)[C@@H](O[C@@H]2O[C@H](C)C[C@H](N(C)C3CC3)[C@H]2O)[C@](C)(OC)C[C@@H](C)C(=O)[C@H](C)[C@@H](O)[C@]1(C)O
12,0.125 µg/mL,C=CCN(C)[C@H]1C[C@@H](C)O[C@@H](O[C@@H]2[C@@H](C)[C@H](OC(=O)Cc3cccc(F)c3)[C@@H](C)C(=O)O[C@H](CC)[C@@](C)(O)[C@H](O)[C@@H](C)C(=O)[C@H](C)C[C@@]2(C)OC)[C@@H]1O
13,2 µg/mL,C#CCN(C)[C@H]1C[C@@H](C)O[C@@H](O[C@@H]2[C@@H](C)[C@H](OC(=O)Cc3cccc(F)c3)[C@@H](C)C(=O)O[C@H](CC)[C@@](C)(O)[C@H](O)[C@@H](C)C(=O)[C@H](C)C[C@@]2(C)OC)[C@@H]1O
14,> 16 µg/mL,CC[C@H]1OC(=O)[C@H](C)[C@@H](OC(=O)Cc2cccc(F)c2)[C@H](C)[C@@H](O[C@@H]2O[C@H](C)C[C@H](N(C)C3CC3)[C@H]2O)[C@](C)(OC)C[C@@H](C)C(=O)[C@H](C)[C@@H](O)[C@]1(C)O
15,0.5 µg/mL,CC[C@H]1OC(=O)[C@H](C)[C@@H](OC(=O)Cc2ccccc2F)[C@H](C)[C@@H](O[C@@H]2O[C@H](C)C[C@H](N(C)Cc3ccccc3)[C@H]2O)[C@](C)(OC)C[C@@H](C)C(=O)[C@H](C)[C@@H](O)[C@]1(C)O
16,0.125 µg/mL,CC[C@H]1OC(=O)[C@H](C)[C@@H](OC(=O)Cc2cccc(F)c2)[C@H](C)[C@@H](O[C@@H]2O[C@H](C)C[C@H](N(C)CC)[C@H]2O)[C@](C)(OC)C[C@@H](C)C(=O)[C@H](C)[C@@H](O)[C@]1(C)O
17,0.25 µg/mL,C=CCN(C)[C@H]1C[C@@H](C)O[C@@H](O[C@@H]2[C@@H](C)[C@H](OC(=O)Cc3ccccn3)[C@@H](C)C(=O)O[C@H](CC)[C@@](C)(O)[C@H](O)[C@@H](C)C(=O)[C@H](C)C[C@@]2(C)OC)[C@@H]1O
18,8 µg/mL,CC[C@H]1OC(=O)[C@H](C)[C@@H](OC(=O)Cc2ccccc2F)[C@H](C)[C@@H](O[C@@H]2O[C@H](C)C[C@H](N(C)CC3CC3)[C@H]2O)[C@](C)(OC)C[C@@H](C)C(=O)[C@H](C)[C@@H](O)[C@]1(C)O
19,> 32 µg/mL,CC[C@H]1OC(=O)[C@H](C)[C@@H](OC(=O)Cc2ccccn2)[C@H](C)[C@@H](O[C@@H]2O[C@H](C)C[C@H](N(C)C3CC3)[C@H]2O)[C@](C)(OC)C[C@@H](C)C(=O)[C@H](C)[C@@H](O)[C@]1(C)O

row,MIC,SMILES
1,2 µg/mL,C#CCN(C)[C@H]1C[C@@H](C)O[C@@H](O[C@@H]2[C@@H](C)[C@H](OC(=O)Cc3ccccc3[N+](=O)[O-])[C@@H](C)C(=O)O[C@H](CC)[C@@](C)(O)[C@H](O)[C@@H](C)C(=O)[C@H](C)C[C@@]2(C)OC)[C@@H]1O
2,1 µg/mL,CC[C@H]1OC(=O)[C@H](C)[C@@H](OC(=O)Cc2cccc(F)c2)[C@H](C)[C@@H](O[C@@H]2O[C@H](C)C[C@H](N(C)Cc3ccccc3)[C@H]2O)[C@](C)(OC)C[C@@H](C)C(=O)[C@H](C)[C@@H](O)[C@]1(C)O
3,0.5 µg/mL,C#CCN(C)[C@H]1C[C@@H](C)O[C@@H](O[C@@H]2[C@@H](C)[C@H](OC(=O)Cc3ccccc3F)[C@@H](C)C(=O)O[C@H](CC)[C@@](C)(O)[C@H](O)[C@@H](C)C(=O)[C@H](C)C[C@@]2(C)OC)[C@@H]1O
4,2 µg/mL,CC[C@H]1OC(=O)[C@H](C)[C@@H](OC(=O)Cc2cccc(F)c2)[C@H](C)[C@@H](O[C@@H]2O[C@H](C)C[C@H](N(C)Cc3ccc(F)cc3)[C@H]2O)[C@](C)(OC)C[C@@H](C)C(=O)[C@H](C)[C@@H](O)[C@]1(C)O
5,> 32 µg/mL,CC[C@H]1OC(=O)[C@H](C)[C@@H](OC(=O)Cc2ccncc2)[C@H](C)[C@@H](O[C@@H]2O[C@H](C)C[C@H](N(C)C3CC3)[C@H]2O)[C@](C)(OC)C[C@@H](C)C(=O)[C@H](C)[C@@H](O)[C@]1(C)O
6,0.5 µg/mL,CC[C@H]1OC(=O)[C@H](C)[C@@H](OC(=O)Cc2ccc(F)cc2)[C@H](C)[C@@H](O[C@@H]2O[C@H](C)C[C@H](N(C)CC)[C@H]2O)[C@](C)(OC)C[C@@H](C)C(=O)[C@H](C)[C@@H](O)[C@]1(C)O
7,0.25 µg/mL,CC[C@H]1OC(=O)[C@H](C)[C@@H](OC(=O)Cc2cccc([N+](=O)[O-])c2)[C@H](C)[C@@H](O[C@@H]2O[C@H](C)C[C@H](N(C)CC)[C@H]2O)[C@](C)(OC)C[C@@H](C)C(=O)[C@H](C)[C@@H](O)[C@]1(C)O
8,1 µg/mL,CC[C@H]1OC(=O)[C@H](C)[C@@H](OC(=O)Cc2ccc([N+](=O)[O-])cc2)[C@H](C)[C@@H](O[C@@H]2O[C@H](C)C[C@H](N(C)CC3CC3)[C@H]2O)[C@](C)(OC)C[C@@H](C)C(=O)[C@H](C)[C@@H](O)[C@]1(C)O
9,16 µg/mL,CC[C@H]1OC(=O)[C@H](C)[C@@H](OC(=O)Cc2cccc([N+](=O)[O-])c2)[C@H](C)[C@@H](O[C@@H]2O[C@H](C)C[C@H](N(C)C3CC3)[C@H]2O)[C@](C)(OC)C[C@@H](C)C(=O)[C@H](C)[C@@H](O)[C@]1(C)O
10,8 µg/mL,CC[C@H]1OC(=O)[C@H](C)[C@@H](OC(=O)Cc2cccc(F)c2)[C@H](C)[C@@H](O[C@@H]2O[C@H](C)C[C@H](N(C)CC3CC3)[C@H]2O)[C@](C)(OC)C[C@@H](C)C(=O)[C@H](C)[C@@H](O)[C@]1(C)O
11,0.5 µg/mL,C=CCN(C)[C@H]1C[C@@H](C)O[C@@H](O[C@@H]2[C@@H](C)[C@H](OC(=O)Cc3ccncc3)[C@@H](C)C(=O)O[C@H](CC)[C@@](C)(O)[C@H](O)[C@@H](C)C(=O)[C@H](C)C[C@@]2(C)OC)[C@@H]1O
12,1 µg/mL,C#CCN(C)[C@H]1C[C@@H](C)O[C@@H](O[C@@H]2[C@@H](C)[C@H](OC(=O)Cc3cccc([N+](=O)[O-])c3)[C@@H](C)C(=O)O[C@H](CC)[C@@](C)(O)[C@H](O)[C@@H](C)C(=O)[C@H](C)C[C@@]2(C)OC)[C@@H]1O
13,4 µg/mL,C#CCN(C)[C@H]1C[C@@H](C)O[C@@H](O[C@@H]2[C@@H](C)[C@H](OC(=O)Cc3ccccn3)[C@@H](C)C(=O)O[C@H](CC)[C@@](C)(O)[C@H](O)[C@@H](C)C(=O)[C@H](C)C[C@@]2(C)OC)[C@@H]1O
14,0.25 µg/mL,CC[C@H]1OC(=O)[C@H](C)[C@@H](OC(=O)Cc2ccccc2F)[C@H](C)[C@@H](O[C@@H]2O[C@H](C)C[C@H](N(C)CC)[C@H]2O)[C@](C)(OC)C[C@@H](C)C(=O)[C@H](C)[C@@H](O)[C@]1(C)O
15,16 µg/mL,CC[C@H]1OC(=O)[C@H](C)[C@@H](OC(=O)Cc2ccccc2F)[C@H](C)[C@@H](O[C@@H]2O[C@H](C)C[C@H](N(C)C3CC3)[C@H]2O)[C@](C)(OC)C[C@@H](C)C(=O)[C@H](C)[C@@H](O)[C@]1(C)O
16,0.5 µg/mL,CC[C@H]1OC(=O)[C@H](C)[C@@H](OC(=O)Cc2cccnc2)[C@H](C)[C@@H](O[C@@H]2O[C@H](C)C[C@H](N(C)CC)[C@H]2O)[C@](C)(OC)C[C@@H](C)C(=O)[C@H](C)[C@@H](O)[C@]1(C)O
17,0.25 µg/mL,C=CCN(C)[C@H]1C[C@@H](C)O[C@@H](O[C@@H]2[C@@H](C)[C@H](OC(=O)Cc3cccnc3)[C@@H](C)C(=O)O[C@H](CC)[C@@](C)(O)[C@H](O)[C@@H](C)C(=O)[C@H](C)C[C@@]2(C)OC)[C@@H]1O
18,0.25 µg/mL,CC[C@H]1OC(=O)[C@H](C)[C@@H](OC(=O)Cc2ccccn2)[C@H](C)[C@@H](O[C@@H]2O[C@H](C)C[C@H](N(C)CC)[C@H]2O)[C@](C)(OC)C[C@@H](C)C(=O)[C@H](C)[C@@H](O)[C@]1(C)O
19,0.25 µg/mL,C=CCN(C)[C@H]1C[C@@H](C)O[C@@H](O[C@@H]2[C@@H](C)[C@H](OC(=O)Cc3ccccc3F)[C@@H](C)C(=O)O[C@H](CC)[C@@](C)(O)[C@H](O)[C@@H](C)C(=O)[C@H](C)C[C@@]2(C)OC)[C@@H]1O

# From ChEMBL document CHEMBL1933046, “Synthesis and antibacterial activity of a novel series of acylides active against community acquired respiratory pathogens” (2012)
